According to PubChem BioAssay AID248 (DTP/NCI, 2004):
Values joined by “and” are separate entries in the source; they are usually repeats but may differ in a detail not shown here. Equal entries are not always repeated. Toxic doses and inconclusive results are not listed. No stated cut-off is given here; in the data, active means T/C of 150% or more; inactive means T/C below 125%.

Tested on: L1210 leukemia ip in BDF1 mice, survival T/C
Experiment: NCI In Vivo Anticancer Drug Screen. Data for tumor model L1210 Leukemia (intraperitoneal) in B6D2F1 (BDF1) mice
Settings: higher = longer survival
In short: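 Ratio derived from survival: compound-dosed mice over vehicle-dosed mice, all bearing a transplantable tumor.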

[1] = endpoint: mean survival time, dose: 200.0 mg/kg/injection, schedule: Q01DX009 (ip), vehicle: Klucel (hydroxypropylcellulose) (HPC)
[2] = endpoint: mean survival time, dose: 400.0 mg/kg/injection, schedule: Q01DX009 (ip), vehicle: Klucel (hydroxypropylcellulose) (HPC)
[3] = endpoint: mean survival time, dose: 25.0 mg/kg/injection, schedule: Q01DX009 (ip), vehicle: saline
[4] = endpoint: mean survival time, dose: 25.0 mg/kg/injection, schedule: Q04DX003 (ip), vehicle: saline with Tween-80
[5] = endpoint: mean survival time, dose: 37.5 mg/kg/injection, schedule: Q01DX009 (ip), vehicle: saline
[6] = endpoint: mean survival time, dose: 50.0 mg/kg/injection, schedule: Q01DX009 (ip), vehicle: saline
[7] = endpoint: mean survival time, dose: 50.0 mg/kg/injection, schedule: Q04DX003 (ip), vehicle: saline with Tween-80
[8] = endpoint: mean survival time, dose: 50.0 mg/kg/injection, schedule: Q01DX009 (ip), vehicle: saline with Tween-80
[9] = endpoint: mean survival time, dose: 100.0 mg/kg/injection, schedule: Q01DX009 (ip), vehicle: saline with Tween-80
[10] = endpoint: mean survival time, dose: 200.0 mg/kg/injection, schedule: Q01DX009 (ip), vehicle: saline with Tween-80
[11] = endpoint: mean survival time, dose: 100.0 mg/kg/injection, schedule: Q04DX003 (ip), vehicle: saline with Tween-80
[12] = endpoint: mean survival time, dose: 200.0 mg/kg/injection, schedule: Q04DX003 (ip), vehicle: saline with Tween-80
[13] = endpoint: mean survival time, dose: 400.0 mg/kg/injection, schedule: Q04DX003 (ip), vehicle: saline with Tween-80
[14] = endpoint: mean survival time, dose: 100.0 mg/kg/injection, schedule: Q01DX001 (ip), vehicle: saline
[15] = endpoint: mean survival time, dose: 200.0 mg/kg/injection, schedule: Q01DX001 (ip), vehicle: saline
[16] = endpoint: mean survival time, dose: 400.0 mg/kg/injection, schedule: Q01DX001 (ip), vehicle: saline
[17] = endpoint: mean survival time, dose: 100.0 mg/kg/injection, schedule: Q01DX009 (ip), vehicle: saline
[18] = endpoint: mean survival time, dose: 100.0 mg/kg/injection, schedule: Q04DX002 (ip), vehicle: Klucel (hydroxypropylcellulose) (HPC)
[19] = endpoint: mean survival time, dose: 200.0 mg/kg/injection, schedule: Q04DX002 (ip), vehicle: Klucel (hydroxypropylcellulose) (HPC)
[20] = endpoint: mean survival time, dose: 400.0 mg/kg/injection, schedule: Q04DX002 (ip), vehicle: Klucel (hydroxypropylcellulose) (HPC)

Measured: T/C

O=C1NCCc2cc3c(cc21)OCO3
inactive: endpoint: mean survival time, dose: 25.0 mg/kg/injection, schedule: Q04DX002 (ip), vehicle: saline 97 % of control | endpoint: mean survival time, dose: 50.0 mg/kg/injection, schedule: Q04DX002 (ip), vehicle: saline 106 % of control | endpoint: mean survival time, dose: 100.0 mg/kg/injection, schedule: Q04DX002 (ip), vehicle: saline 103 % of control

CN1CCC(=C(C#N)c2ccccc2)CC1
inactive: endpoint: mean survival time, dose: 25.0 mg/kg/injection, schedule: Q04DX003 (ip), vehicle: saline 97 % of control | endpoint: mean survival time, dose: 50.0 mg/kg/injection, schedule: Q04DX003 (ip), vehicle: saline 97 % of control

CCN(c1ccccc1)c1ccc(C=O)cc1
inactive: endpoint: mean survival time, dose: 100.0 mg/kg/injection, schedule: Q01DX009 (ip), vehicle: Klucel (hydroxypropylcellulose) (HPC) 98 % of control | endpoint: mean survival time, dose: 100.0 mg/kg/injection, schedule: Q04DX003 (ip), vehicle: Klucel (hydroxypropylcellulose) (HPC) 97 % of control | [1] 94 % of control | endpoint: mean survival time, dose: 200.0 mg/kg/injection, schedule: Q04DX003 (ip), vehicle: Klucel (hydroxypropylcellulose) (HPC) 102 % of control | [2] 93 % of control | endpoint: mean survival time, dose: 400.0 mg/kg/injection, schedule: Q04DX003 (ip), vehicle: Klucel (hydroxypropylcellulose) (HPC) 105 % of control

COc1ccc2c(ccc[n+]2C)c1
inactive: endpoint: mean survival time, dose: 11.0 mg/kg/injection, schedule: Q01DX009 (ip), vehicle: saline 103 % of control | endpoint: mean survival time, dose: 12.5 mg/kg/injection, schedule: Q01DX009 (ip), vehicle: saline 102 % of control | endpoint: mean survival time, dose: 12.5 mg/kg/injection, schedule: Q04DX003 (ip), vehicle: saline with Tween-80 96 % of control | endpoint: mean survival time, dose: 16.5 mg/kg/injection, schedule: Q01DX009 (ip), vehicle: saline 117 % of control | [3] 109 % of control and 110 % of control | [4] 102 % of control | endpoint: mean survival time, dose: 33.0 mg/kg/injection, schedule: Q01DX009 (ip), vehicle: saline 113 % of control | [5] 115 % of control | [6] 115 % of control and 87 % of control | [7] 100 % of control | endpoint: mean survival time, dose: 75.0 mg/kg/injection, schedule: Q01DX001 (ip), vehicle: carboxymethylcellulose (CMC) 108 % of control

CCCSCCN=C(N)C(N)=NCCSCCC
inactive: endpoint: mean survival time, dose: 25.0 mg/kg/injection, schedule: Q04DX002 (ip), vehicle: saline with Tween-80 88 % of control | endpoint: mean survival time, dose: 50.0 mg/kg/injection, schedule: Q04DX002 (ip), vehicle: saline with Tween-80 95 % of control | endpoint: mean survival time, dose: 100.0 mg/kg/injection, schedule: Q04DX002 (ip), vehicle: saline with Tween-80 97 % of control and 101 % of control

OCCC=C(c1ccccc1)c1ccccc1
inactive: [8] 107 % of control | [9] 100 % of control | [10] 104 % of control

Cc1ccc(CNc2ccc([N+](=O)[O-])cc2)cc1
inactive: [8] 92 % of control | [9] 103 % of control | [11] 93 % of control | [10] 97 % of control | [12] 101 % of control | [13] 88 % of control

Nc1ccc(N=Nc2ccc(S(N)(=O)=O)cc2)c(N)n1
inactive: [14] 107 % of control | [15] 114 % of control | [16] 104 % of control

NNC(=O)c1ccc([N+](=O)[O-])cc1
inactive: endpoint: mean survival time, dose: 25.0 mg/kg/injection, schedule: Q01DX009 (ip), vehicle: saline with Tween-80 97 % of control | [8] 92 % of control | [9] 95 % of control | [11] 95 % of control

OCCN1CCN(CCCN2c3ccccc3Sc3cccnc32)CC1
inactive: endpoint: mean survival time, dose: 4.68 mg/kg/injection, schedule: Q01DX009 (ip), vehicle: saline 94 % of control | endpoint: mean survival time, dose: 9.37 mg/kg/injection, schedule: Q01DX009 (ip), vehicle: saline 104 % of control | endpoint: mean survival time, dose: 18.75 mg/kg/injection, schedule: Q01DX009 (ip), vehicle: saline 113 % of control | endpoint: mean survival time, dose: 20.0 mg/kg/injection, schedule: Q01DX009 (ip), vehicle: saline 111 % of control | [5] 115 % of control | endpoint: mean survival time, dose: 40.0 mg/kg/injection, schedule: Q01DX009 (ip), vehicle: saline 112 % of control | endpoint: mean survival time, dose: 75.0 mg/kg/injection, schedule: Q01DX009 (ip), vehicle: saline 107 % of control | endpoint: median survival time, dose: 20.0 mg/kg/injection, schedule: Q01DX009 (ip), vehicle: saline 113 % of control | endpoint: median survival time, dose: 40.0 mg/kg/injection, schedule: Q01DX009 (ip), vehicle: saline 112 % of control

CC[N+](CC)(CC)CCCCC[N+](CC)(CC)CC
inactive: endpoint: mean survival time, dose: 12.5 mg/kg/injection, schedule: Q01DX009 (ip), vehicle: water 106 % of control | endpoint: mean survival time, dose: 25.0 mg/kg/injection, schedule: Q01DX009 (ip), vehicle: water 101 % of control | [4] 94 % of control | [7] 94 % of control

Nc1ncnc2c1ncn2C1OC(CO)C(N)C1O (stereo not given)
inactive: endpoint: mean survival time, dose: 1.3 mg/kg/injection, schedule: Q01DX Z (ip), vehicle: carboxymethylcellulose (CMC) 105 % of control | endpoint: mean survival time, dose: 2.0 mg/kg/injection, schedule: Q01DX Z (ip), vehicle: carboxymethylcellulose (CMC) 108 % of control | endpoint: mean survival time, dose: 3.0 mg/kg/injection, schedule: Q01DX Z (ip), vehicle: carboxymethylcellulose (CMC) 113 % of control

COc1ccc2ncc(C)c(CO)c2c1
inactive: endpoint: mean survival time, dose: 44.0 mg/kg/injection, schedule: Q01DX009 (ip), vehicle: Klucel (hydroxypropylcellulose) (HPC) 96 % of control | endpoint: mean survival time, dose: 66.0 mg/kg/injection, schedule: Q01DX009 (ip), vehicle: Klucel (hydroxypropylcellulose) (HPC) 98 % of control | endpoint: mean survival time, dose: 150.0 mg/kg/injection, schedule: Q01DX009 (ip), vehicle: Klucel (hydroxypropylcellulose) (HPC) 101 % of control | [1] 102 % of control | [2] 102 % of control

COc1ccc(-n2c(=O)c(N=Nc3ccccc3C)c(O)n(-c3ccccc3C)c2=S)cc1
inactive: endpoint: mean survival time, dose: 37.5 mg/kg/injection, schedule: Q01DX001 (ip), vehicle: Klucel (hydroxypropylcellulose) (HPC) 100 % of control | endpoint: mean survival time, dose: 75.0 mg/kg/injection, schedule: Q01DX001 (ip), vehicle: Klucel (hydroxypropylcellulose) (HPC) 97 % of control | endpoint: mean survival time, dose: 150.0 mg/kg/injection, schedule: Q01DX001 (ip), vehicle: Klucel (hydroxypropylcellulose) (HPC) 100 % of control

C[N+](C)(C)Cc1ccco1
inactive: [3] 103 % of control | [6] 93 % of control | [17] 95 % of control and 90 % of control

CCOc1nc2ccccc2c2cc3ccccc3cc12
inactive: [14] 103 % of control | [15] 109 % of control | [16] 111 % of control

O=S(=O)(c1ccccc1)C1C2CCC(O2)C1S(=O)(=O)c1ccccc1 (stereo not given)
inactive: [18] 103 % of control | [19] 92 % of control | [20] 89 % of control

COC1OC(CO)C(O)C(O)C1NC(C)=O (stereo not given)
inactive: [14] 106 % of control | [15] 103 % of control | [16] 104 % of control

CC(N)c1ccccc1 (stereo not given) (tested in a mixture with another compound)
inactive: [6] 87 % of control | [17] 90 % of control

CCCCOC1CCS(=O)(=O)C1 (stereo not given)
inactive: endpoint: mean survival time, dose: 100.0 mg/kg/injection, schedule: Q04DX003 (ip), vehicle: other 101 % of control | endpoint: mean survival time, dose: 200.0 mg/kg/injection, schedule: Q04DX003 (ip), vehicle: other 101 % of control | endpoint: mean survival time, dose: 400.0 mg/kg/injection, schedule: Q04DX003 (ip), vehicle: other 94 % of control

COc1ccc(C2(OC)Oc3cc(OC)ccc3-c3nc4ccccc4nc32)cc1 (stereo not given)
inactive: endpoint: mean survival time, dose: 50.0 mg/kg/injection, schedule: Q01DX001 (ip), vehicle: saline 101 % of control | [14] 101 % of control | [15] 95 % of control | [16] 101 % of control

CCC1(CC)C=CC(Br)CC1(CC)CC (stereo not given)
inactive: [11] 103 % of control | [12] 101 % of control | [13] 101 % of control

CCCNC(=O)Nc1ccc(Cl)cc1
inactive: endpoint: mean survival time, dose: 100.0 mg/kg/injection, schedule: Q01DX001 (ip), vehicle: carboxymethylcellulose (CMC) 103 % of control | endpoint: mean survival time, dose: 200.0 mg/kg/injection, schedule: Q01DX001 (ip), vehicle: carboxymethylcellulose (CMC) 98 % of control | endpoint: mean survival time, dose: 400.0 mg/kg/injection, schedule: Q01DX001 (ip), vehicle: carboxymethylcellulose (CMC) 95 % of control

O=C(O)c1cc(S(=O)(=O)O)cc([N+](=O)[O-])c1O
inactive: [18] 96 % of control | [19] 104 % of control | [20] 96 % of control

Cn1c(C[N+](C)(C)C)cc2ccccc21
inactive: [11] 104 % of control | [12] 96 % of control

COC(=O)c1cc(Br)ccc1OCC(=O)Nc1ccccc1
inactive: [11] 94 % of control | [12] 94 % of control | [13] 91 % of control
